This is an account of results in patent US12391687B2, “Five-and-six-membered heterocyclic compound and use thereof as protein receptor kinase inhibitor” (SHANGHAI ENNOVABIO PHARMACEUTICALS CO., LTD., priority 2018, dated 2025).

The target of one experiment is Recombinant human TRKC (Homo sapiens (Human), UniProt Q16288). In words: In vitro activity test on TRKC kinase (HTRF kinEASE TK). In kind it is biochemical. To be noted: 25.64 μM ATP, 40 min, room temperature. The protocol:
(§1) Recombinant human TRKA, TRKB, TRKC proteins were purchased from Carna Biosciences. HTRF kinEASE TK kit was purchased from Cisbio Bioassays. Synergy Neo 2 of Biotek was used to read the plate.
(§2) The tested compounds were subjected to 3-fold serial dilution to reach a final concentration of 1 μM to 0.05 nM (10 concentrations), duplicates for each concentration; and the DMSO concentration in the detection reaction was 1%.
0.037 ng/μL TRKC protein kinase, 1 μM TK Substrate-biotin polypeptide substrate, 25.64 μM ATP, 1× enzymatic buffer, 5 mM MgCl2, and 1 mM DTT. The detection plate was White Proxiplate 384-Plus plate (PerkinElmer), the reaction was incubated at room temperature for 40 min, and the assay volume was 10 μL.
(§3) 10 μL of detection reagent (containing 0.125 μM SA-XL665 and 5 μL 1×TK-Antibody) was added to the plate and incubated overnight at room temperature. Synergy Neo 2 was used to read the plate.
(§4) The 665/620 Ratio was converted according to the following formula into inhibition rate (%)=(1−Ratiotest/Ratiomax)×100%. Ratiomax was the value of positive controls without tested compound, and Ratiotest was the value of each concentration of different compounds. IC50 (nM) data was obtained by 4 parameter curve fitting (see Table 1).
For orientation: Time-resolved FRET reads energy transfer from a long-lived donor to a nearby acceptor.

Another experiment has as its target Recombinant human TRKA (Homo sapiens (Human), UniProt P04629). In words: In vitro activity test on TRKA kinase (HTRF kinEASE TK). The class given is biochemical. To be noted: 14.68 μM ATP, 40 min, room temperature. The protocol: as §1, §2
0.2 ng/μL TRKA protein kinase, 1 μM TK Substrate-biotin polypeptide substrate, 14.68 μM ATP, 1×enzymatic buffer, 5 mM MgCl2, and 1 mM DTT. The assay plate was White Proxiplate384-Plus plate (PerkinElmer), and the reaction was incubated at room temperature for 40 min, and the assay volume was 10 μL.
as §3, §4

The next experiment addresses Recombinant human TRKB (Homo sapiens (Human), UniProt Q16620). As to the kind of experiment: In vitro activity test on TRKB kinase (HTRF kinEASE TK). To be noted: 4.77 μM ATP, 50 min, room temperature. In kind it is biochemical. The protocol:
as §1, §2
0.037 ng/μL TRKB protein kinase, 1 μM TK Substrate-biotin polypeptide substrate, 4.77 μM ATP, 1× enzymatic buffer, 5 mM MgCl2, 1 mM MnCl2 and 1 mM DTT. The assay plate was White Proxiplate 384-Plus plate (PerkinElmer), the reaction was incubated at room temperature for 50 min, and the assay volume was 10 μL.
as §3, §4

Experiment [1] addresses recombinant human TRKA (G595R) (Homo sapiens (Human), UniProt P04629, G595R). As to the kind of experiment: In vitro activity test on mutant TRKA (G595R) (HTRF kinEASE TK). Particulars: 4.5 μM ATP, 30 min, room temperature; read-out: TRKA (G595R) IC 50. The class given is biochemical. The protocol:
The recombinant human TRKA (G595R), TRKA (G667C) and TRKC (G623R) proteins were purchased from SignalChem. HTRF kinEASE TK kit was purchased from Cisbio Bioassays. Synergy Neo 2 of Biotek was used to read the plate.
The tested compounds were subjected to 4-fold serial dilution to reach a final concentration of 1 μM to 0.004 nM (10 concentrates), duplicates for each concentration; and the final concentration of DMSO in the reaction was 1%.
0.12 ng/μL TRKA (G595R) kinase, 1 μM TK Substrate-biotin polypeptide substrate, 4.5 μM ATP, 1× enzymatic buffer, 5 mM MgCl2, and 1 mM DTT. The assay plate was White Proxiplate384-Plus plate (PerkinElmer), and the reaction was incubated at room temperature for 30 min, and the assay volume was 10 μL.
10 μL of detection reagent (containing 0.125 μM SA-XL665 and 5 μL 1×TK-Antibody) was added to the plate and incubated overnight at room temperature, and Synergy Neo 2 was used to read the plate.
The value of 665/620 Ratio minus the value of negative control wells without enzyme, then the obtained value was converted according to the following formula into inhibition rate (%)=(1−Ratiotest/Ratiomax)×100%. Ratiomax was the value of positive controls without tested compound, and Ratiotest was the value of each concentration of different compounds. IC50 (nM) data was obtained by 4 parameter curve fitting (see Table 3).

The test system of another experiment is KM12-LUC cells. As to the kind of experiment: KM12-LUC cell proliferation experiment (CellTiter-Glo). Particulars: human colon cancer cell line with TPM3-NTRK1 fusion, 72 hours. In kind it is cell-based. The protocol:
Human colon cancer cell line KM12-LUC (LUC, stably expressing Luciferase) expressing TPM3-NTRK1 fusion gene was used to evaluate cellular activity of the compounds. The TRK fusion gene in KM12-LUC cells makes the sustained activation of TRK and the downstream signaling pathways associated with cell proliferation such as MAPK-ERK, PI3K-AKT, etc independent of the stimulation of extracellular growth factor. […] The method was as follows: On the first day, the cells were seeded into 384-well plates at 2000 cells/well; on the second day, different concentrations of test compounds were added; and on the 5th day, CellTiter-Glo (Promega) was added to detect cell viability, and the cell proliferation inhibition rate at 72 hours was calculated. Statistical analysis was carried out by PRISM5 and the IC50 of the test compounds was calculated.

Recombinant human TRKC, sequence (Q16288 32-839): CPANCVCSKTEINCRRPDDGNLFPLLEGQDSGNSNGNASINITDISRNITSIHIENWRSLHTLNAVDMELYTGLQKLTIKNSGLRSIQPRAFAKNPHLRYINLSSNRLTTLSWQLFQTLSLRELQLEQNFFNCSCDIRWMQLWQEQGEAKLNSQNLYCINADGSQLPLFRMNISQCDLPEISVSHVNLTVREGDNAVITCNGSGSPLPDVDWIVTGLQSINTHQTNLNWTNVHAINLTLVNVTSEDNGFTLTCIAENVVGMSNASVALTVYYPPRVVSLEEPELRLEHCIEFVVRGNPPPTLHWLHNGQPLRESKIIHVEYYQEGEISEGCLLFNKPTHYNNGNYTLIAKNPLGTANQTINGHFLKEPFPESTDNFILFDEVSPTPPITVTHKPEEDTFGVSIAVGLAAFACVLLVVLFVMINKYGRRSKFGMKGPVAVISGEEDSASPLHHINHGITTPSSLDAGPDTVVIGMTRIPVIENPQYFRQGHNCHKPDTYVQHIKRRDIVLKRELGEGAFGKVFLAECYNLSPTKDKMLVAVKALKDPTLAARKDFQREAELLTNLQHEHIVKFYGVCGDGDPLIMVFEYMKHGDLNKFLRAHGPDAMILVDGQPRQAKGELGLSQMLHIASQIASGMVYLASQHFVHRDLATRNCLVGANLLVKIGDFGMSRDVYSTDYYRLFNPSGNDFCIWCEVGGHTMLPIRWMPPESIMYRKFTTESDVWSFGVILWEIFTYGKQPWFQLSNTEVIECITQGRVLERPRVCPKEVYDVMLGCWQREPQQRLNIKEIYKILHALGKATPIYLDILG
recombinant human TRKA (G595R), sequence (P04629 33-796 G595R): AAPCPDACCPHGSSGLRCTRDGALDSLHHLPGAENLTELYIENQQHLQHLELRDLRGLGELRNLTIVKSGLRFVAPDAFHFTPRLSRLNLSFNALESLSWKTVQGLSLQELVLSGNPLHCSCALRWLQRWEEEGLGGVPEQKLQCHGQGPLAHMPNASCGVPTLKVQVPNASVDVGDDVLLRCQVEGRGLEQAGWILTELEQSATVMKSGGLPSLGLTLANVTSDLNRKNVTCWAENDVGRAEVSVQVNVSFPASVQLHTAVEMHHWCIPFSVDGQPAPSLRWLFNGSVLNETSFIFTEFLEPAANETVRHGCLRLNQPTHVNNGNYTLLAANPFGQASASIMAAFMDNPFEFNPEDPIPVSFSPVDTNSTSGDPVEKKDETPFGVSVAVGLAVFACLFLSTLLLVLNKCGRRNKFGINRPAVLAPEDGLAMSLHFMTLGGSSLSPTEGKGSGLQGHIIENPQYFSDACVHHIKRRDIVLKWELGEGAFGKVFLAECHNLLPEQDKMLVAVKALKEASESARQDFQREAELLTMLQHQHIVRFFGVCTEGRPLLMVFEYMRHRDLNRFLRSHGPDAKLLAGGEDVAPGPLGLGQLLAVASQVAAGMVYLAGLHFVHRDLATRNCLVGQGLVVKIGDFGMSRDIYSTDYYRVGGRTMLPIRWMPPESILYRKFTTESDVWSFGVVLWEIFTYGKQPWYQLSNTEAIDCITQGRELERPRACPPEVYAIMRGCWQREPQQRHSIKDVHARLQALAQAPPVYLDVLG
Recombinant human TRKA, sequence (P04629 33-796): as the sequence (P04629 33-796 G595R) above, with R563G counted along it
Recombinant human TRKB, sequence (Q16620 32-822): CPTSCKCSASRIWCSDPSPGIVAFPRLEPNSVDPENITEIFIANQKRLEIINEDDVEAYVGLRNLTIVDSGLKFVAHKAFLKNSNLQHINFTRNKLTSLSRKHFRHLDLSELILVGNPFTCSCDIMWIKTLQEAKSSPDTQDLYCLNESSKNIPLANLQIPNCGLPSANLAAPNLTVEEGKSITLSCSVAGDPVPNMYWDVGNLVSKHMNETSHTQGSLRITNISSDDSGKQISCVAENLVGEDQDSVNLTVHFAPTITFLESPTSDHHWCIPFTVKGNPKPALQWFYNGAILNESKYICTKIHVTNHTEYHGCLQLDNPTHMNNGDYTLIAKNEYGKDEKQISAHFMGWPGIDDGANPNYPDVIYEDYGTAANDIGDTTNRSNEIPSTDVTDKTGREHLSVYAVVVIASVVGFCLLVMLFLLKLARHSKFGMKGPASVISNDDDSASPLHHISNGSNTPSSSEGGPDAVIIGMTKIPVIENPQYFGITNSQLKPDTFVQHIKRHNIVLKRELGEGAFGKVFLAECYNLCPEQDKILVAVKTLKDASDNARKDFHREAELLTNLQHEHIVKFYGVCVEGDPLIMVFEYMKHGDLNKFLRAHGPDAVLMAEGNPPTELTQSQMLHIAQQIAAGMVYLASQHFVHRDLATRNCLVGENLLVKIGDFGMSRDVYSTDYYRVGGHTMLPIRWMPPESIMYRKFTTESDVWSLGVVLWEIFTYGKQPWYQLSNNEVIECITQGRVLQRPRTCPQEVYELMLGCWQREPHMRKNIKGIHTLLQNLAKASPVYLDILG

In the case of `CC(C)(O)Cn1cc(-c2cnc3[nH]nc(N4C[C@@H](F)C[C@@H]4c4cc(F)ccc4F)c3c2)cn1` [Example 32, 1-(4-(3-((2R,4S)-2-(2,5-difluorophenyl)-4-fluoropyrrolidin-1-yl)-1H-pyrazolo[3,4-b]pyridin-5-yl)-1H-pyrazol-1-yl)-2-methylpropan-2-ol], the IC50 (at Recombinant human TRKC; at Recombinant human TRKA; on Recombinant human TRKB; in experiment [1]; in the experiment with KM12-LUC cells) was less than 1 nM in each case.
`CS(=O)(=O)n1cc(-c2cnc3[nH]nc(N4C[C@@H](F)C[C@@H]4c4cc(F)ccc4F)c3c2)cn1` [Example 27, 3-((2R,4S)-2-(2,5-difluorophenyl)-4-fluoropyrrolidin-1-yl)-5-(1-(methylsulfonyl)-1H-pyrazol-4-yl)-1H-pyrazolo[3,4-b]pyridine]: the IC50 (at Recombinant human TRKC; at Recombinant human TRKA; at Recombinant human TRKB; in experiment [1]) was less than 1 nM each time.
For the molecule `O=C(O)c1cnc2[nH]nc(N3C[C@@H](F)C[C@@H]3c3cc(F)ccc3F)c2c1` [Example 17, 3-((2R,4S)-2-(2,5-difluorophenyl)-4-fluoropyrrolidin-1-yl)-1H-pyrazolo[3,4-b]pyridine-5-carboxylic acid], the IC50 was less than 1 nM on Recombinant human TRKC, less than 1 nM on Recombinant human TRKA, less than 1 nM on Recombinant human TRKB and less than 10 nM in experiment [1].
Regarding `NC(=O)c1cnc2[nH]nc(N3C[C@@H](F)C[C@@H]3c3cc(F)ccc3F)c2c1` [Example 5, 3-((2R,4S)-2-(2,5-difluorophenyl)-4-fluoropyrrolidin-1-yl)-1H-pyrazolo[3,4-b]pyridine-5-carboxamide], the IC50 (on Recombinant human TRKC; at Recombinant human TRKA; on Recombinant human TRKB; in experiment [1]; in the experiment on KM12-LUC cells) was less than 10 nM each time.
Turning to `Fc1ccc(F)c([C@H]2C[C@H](F)CN2c2n[nH]c3ncc(-c4cnn(C5CCOCC5)c4)cc23)c1` [Example 28, 3-((2R,4S)-2-(2,5-difluorophenyl)-4-fluoropyrrolidin-1-yl)-5-(1-(tetrahydro-2H-pyran-4-yl)-1H-pyrazol-4-yl)-1H-pyrazolo[3,4-b]pyridine], the IC50 (on Recombinant human TRKC; on Recombinant human TRKA; at Recombinant human TRKB; in experiment [1]) was less than 1 nM throughout.
As to `Fc1ccc(F)c([C@H]2C[C@H](F)CN2c2n[nH]c3ncc(-c4cnn(CC(F)(F)F)c4)cc23)c1` [Example 35, 3-((2R,4S)-2-(2,5-difluorophenyl)-4-fluoropyrrolidin-1-yl)-5-(1-(2,2,2-trifluoroethyl)-1H-pyrazol-4-yl)-1H-pyrazolo[3,4-b]pyridine], the IC50 on Recombinant human TRKC is less than 1 nM; at Recombinant human TRKA, less than 1 nM; at Recombinant human TRKB, less than 1 nM; in experiment [1] it was less than 1 nM; in the experiment with KM12-LUC cells, less than 10 nM.
Consider `Fc1ccc(F)c([C@H]2C[C@H](F)CN2c2n[nH]c3ncc(-c4cnn(C5CCNCC5)c4)cc23)c1` [Example 22, 3-((2R,4S)-2-(2,5-difluorophenyl)-4-fluoropyrrolidin-1-yl)-5-(1-(piperidin-4-yl)-1H-pyrazol-4-yl)-1H-pyrazolo[3,4-b]pyridine], for which the IC50 at Recombinant human TRKC was less than 1 nM; at Recombinant human TRKA, less than 1 nM; at Recombinant human TRKB, less than 1 nM; in experiment [1], less than 1 nM; in the experiment on KM12-LUC cells it was less than 10 nM.
For `COCc1nnc(-c2cnc3[nH]nc(N4C[C@@H](F)C[C@@H]4c4cc(F)ccc4F)c3c2)o1` [Example 37, 2-(3-((2R,4S)-2-(2,5-difluorophenyl)-4-fluoropyrrolidin-1-yl)-1H-pyrazolo[3,4-b]pyridin-5-yl)-5-(methoxymethyl)-1,3,4-oxadiazole], the IC50 at Recombinant human TRKC is less than 1 nM; on Recombinant human TRKA it was less than 1 nM; on Recombinant human TRKB, less than 1 nM; in experiment [1], less than 1 nM; in the experiment on KM12-LUC cells it was less than 10 nM.
With `Cc1cn(CC(F)F)nc1-c1cnc2[nH]nc(N3C[C@@H](F)C[C@@H]3c3cc(F)ccc3F)c2c1` [Example 40, 5-(1-(2,2-difluoroethyl)-4-methyl-1H-pyrazol-3-yl)-3-((2R,4S)-2-(2,5-difluorophenyl)-4-fluoropyrrolidin-1-yl)-1H-pyrazolo[3,4-b]pyridine], the IC50 on Recombinant human TRKC is less than 1 nM; on Recombinant human TRKA, less than 1 nM; at Recombinant human TRKB it was less than 1 nM; in experiment [1], less than 10 nM.
Consider `CN1CC(n2cc(-c3cnc4[nH]nc(N5C[C@@H](F)C[C@@H]5c5cc(F)ccc5F)c4c3)cn2)C1` [Example 29, 3-((2R,4S)-2-(2,5-difluorophenyl)-4-fluoropyrrolidin-1-yl)-5-(1-(1-methylazetidin-3-yl)-1H-pyrazol-4-yl)-1H-pyrazolo[3,4-b]pyridine], for which the IC50 was less than 1 nM on Recombinant human TRKC; less than 1 nM at Recombinant human TRKA; less than 1 nM on Recombinant human TRKB; less than 10 nM in experiment [1]; less than 10 nM in the experiment on KM12-LUC cells.
As to `Fc1ccc(F)c([C@H]2C[C@H](F)CN2c2n[nH]c3ncc(-c4nnc(COC(F)(F)F)o4)cc23)c1` [Example 41, 2-(3-((2R,4S)-2-(2,5-difluorophenyl)-4-fluoropyrrolidin-1-yl)-1H-pyrazolo[3,4-b]pyridin-5-yl)-5-((trifluoromethoxy)methyl)-1,3,4-oxadiazole], the IC50 (at Recombinant human TRKC; at Recombinant human TRKA; at Recombinant human TRKB; in experiment [1]) was less than 1 nM each time.
Consider `O=C(c1n[nH]c2nccc(N[C@@H]3CCC[C@H]3O)c12)N1C[C@@H](F)C[C@@H]1c1cc(F)ccc1F` [Example 43, ((2R,4S)-2-(2,5-difluorophenyl)-4-fluoropyrrolidin-1-yl)(4-(((1R,2R)-2-hydroxycyclopentyl)amino)-1H-pyrazolo[3,4-b]pyridin-3-yl)methanone], for which the IC50 (at Recombinant human TRKC; at Recombinant human TRKA; at Recombinant human TRKB; in experiment [1]) was less than 1 nM throughout.
With `COC(=O)c1cnc2[nH]nc(N3C[C@@H](F)C[C@@H]3c3cc(F)ccc3F)c2c1` [Example 13, Methyl 3-((2R,4S)-2-(2,5-difluorophenyl)-4-fluoropyrrolidin-1-yl)-1H-pyrazolo[3,4-b]pyridine-5-carboxylate], the IC50 (on Recombinant human TRKC; on Recombinant human TRKA; at Recombinant human TRKB; in experiment [1]) was less than 1 nM each time.
With `Fc1ccc(F)c([C@H]2C[C@H](F)CN2c2n[nH]c3ncc(-c4nn[nH]n4)cc23)c1` [Example 21, 3-((2R,4S)-2-(2,5-difluorophenyl)-4-fluoropyrrolidin-1-yl)-5-(2H-tetrazol-5-yl)-1H-pyrazolo[3,4-b]pyridine], the IC50 (at Recombinant human TRKC; at Recombinant human TRKA; at Recombinant human TRKB; in experiment [1]) was less than 1 nM in each case.
